Results: PMC8080595, “Discovery of a novel RORγ antagonist with skin-restricted exposure for topical treatment of mild to moderate psoriasis” (Scientific Reports, 2021)

What was measured:
[1] = test system: IL-17 secretion in mouse splenocyte; experiment: Mouse IL-17 production assay using mouse splenocyte; format: cell-based; settings: Th17 differentiation, 72 h, n = 3, read-out: inhibition of secretion of IL-17 in mouse splenocyte, average IC50
Description: To evaluate the impact of SHR168442 on IL-17 secretion in mouse cells, the mouse Th17 cell differentiation kit from R&D Systems was used to polarize the mouse spleen cells. Differentiation of Th17 cells in mouse splenocyte for 72 h was confirmed by secretion of IL-17 in culture supernatant, 93 pg/mL in average (2.7 pg/mL without differentiation), a 34-fold increase of IL-17 secretion.
Mouse splenocytes (Zenbio) were stimulated by Mouse Th17 Differentiation Media (R&D Systems) according to the manufacturer’s protocol. On day 5, compounds were added and then incubated for 72 h, and IL-17 in the supernatant was measured using IL-17A homodimer (mouse) AlphaLISA detection kit (Perkin Elmer) according to the manufacturer’s protocol.

RORα = biological target: T1, RORα (Homo sapiens, UniProt P35398); experiment: RORα luciferase reporter assay; format: cell-based; settings: up to 10,000 nM, n = 3
T1 sequence (P35398 272-523 limits assumed): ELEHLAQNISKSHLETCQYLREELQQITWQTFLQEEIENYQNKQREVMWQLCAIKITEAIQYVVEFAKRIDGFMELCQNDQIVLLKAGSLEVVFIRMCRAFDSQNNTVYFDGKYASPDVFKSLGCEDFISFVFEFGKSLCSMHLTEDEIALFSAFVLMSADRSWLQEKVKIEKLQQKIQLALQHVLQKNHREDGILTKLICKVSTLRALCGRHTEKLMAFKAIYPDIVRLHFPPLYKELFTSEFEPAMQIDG
Description: We next assessed the selectivity of SHR168442 against another ROR family member, RORα, using nuclear reporter assay. […] ATRA (all trans-retinoic acid) was used as a positive control in the assay.
Cell-based luciferase reporter assays for RORα and RORγ (Indigo Biosciences) were performed according to the manufacturer’s protocol.

[2] = test system: IL-17 secretion from human PBMCs; experiment: Human IL-17 production assay using human PBMC; format: cell-based; settings: cytostim stimulation 72 h
Description: To confirm cellular on-target effects, we investigated the inhibition of selected RORγ antagonists on RORγ-regulated IL-17 secretion using human PBMC. Human IL-17-producing cells were readily formed following cytostim stimulation. In human PBMC stimulated with cytostim for 72 h, differentiation of Th17 cells was confirmed by increased secretion of IL-17 (291 pg/mL) in cell culture supernatant compared to basal level of IL-17 (20 pg/mL IL-17 without cytostim stimulation), […] of IL-17 secretion.
Human PBMCs (Zenbio) in TexMACS media were stimulated by cytostim (Miltenyi) for 72 h following the vendor's instruction. Human IL-17A in cell culture supernatant was measured using AlphaLISA human IL-17A Biotin-free detection kit (Perkin Elmer) according to the manufacturer’s protocol.

[3] = test system: IMQ-induced psoriasis-like skin inflammation mice; experiment: IMQ-induced psoriasis-like skin inflammation model, topical treatment; format: in vivo, BALB/c mice
Description: At the end of the study, the mouse plasma and diseased back skin were collected 3 h after topical application for PK analysis.
Psoriasis was induced by topical application of IMQ cream on the shaved dorsal skin as described by Leslie van der Fits et al.[18]. SHR168442 in Vaseline (n = 10 per group) was treated once a day (QD) from 3 days prior to day 1, and then twice a day (BID) from day 1 to day 6. The animal was sacrificed at 3 h after the first dose in the morning of day 7. Erythema, scaling, and thickness of the back skin were scored independently daily on a scale from 0 to 4. Blood and back skin tissues from the study were collected at 3 h (n = 4) post dosing in the morning of […]. The plasma and skin tissues after tape stripping were analyzed for Compound 1 as described above. The in-life portion of the study was carried out at Washington Biotechnology (Baltimore, MD). The housing conditions and in-life procedures were approved by IACUC. The experiments were conducted in accordance with the Guiding Principles for the Care and Use of Laboratory Animals and complied with the ARRIVE guidelines.

RORγ LBD = biological target: T2, RORγ LBD (Homo sapiens, UniProt P51449); experiment: LanthaScreen TR-FRET human RORγ coactivator assay; format: biochemical; settings: antagonist mode, read-out: Binding of RORγ LBD, IC50
T2 construct: The assay was performed with GST-tag RORγ LBD (25 ng/reaction, Creative Biomart); purchased Creative Biomart
T2 sequence (P51449 269-508 limits assumed): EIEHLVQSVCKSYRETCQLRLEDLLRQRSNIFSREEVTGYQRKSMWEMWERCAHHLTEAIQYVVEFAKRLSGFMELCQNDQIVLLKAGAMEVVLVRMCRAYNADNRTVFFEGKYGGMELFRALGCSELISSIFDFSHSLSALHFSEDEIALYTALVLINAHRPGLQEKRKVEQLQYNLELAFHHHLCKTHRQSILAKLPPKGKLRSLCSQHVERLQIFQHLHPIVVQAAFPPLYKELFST
Description: In LanthaScreen TR-FRET RORγ coactivator assay, the RORγ LBD was constitutively active and the coactivator peptide (fluorescein-D22) was recruited in the absence of ligand, or compound (Fig. 2a). The binding of an antagonist to RORγ LBD causes a conformational change of the receptor, leading to a decrease in the affinity of the receptor for the coactivator peptide. The separation of the fluorescently labeled coactivator peptide from RORγ LBD from the receptor with the terbium-labeled antibody causes a decrease in the TR-FRET signal compared to those without compound. The assay was validated by detecting the ligand-independent recruitment of coactivator peptide in the presence or absence of RORγ LBD (2.5- to 3-fold assay window). Effects of the key compounds of the novel chemotype in Fig. 1, were tested in LanthaScreen TR-FRET RORγ coactivator assay.
The assay was performed with GST-tag RORγ LBD (25 ng/reaction, Creative Biomart), 0.6 μM Fluorescein-D22 coactivator peptide and 8 nM Tb anti-GST antibody (Invitrogen) at room temperature for 60 minutes. The fluorescent signals were measured with 520 nm emission and 495 nm excitation on Tecan Infinite. The data were calculated using DMSO control as 0% inhibition and non-protein control as 100% inhibition. IC50 values were calculated using non-linear regression analysis of GraphPad Prism in all assays.

ADORA2A = biological target: T3, ADORA2A (Homo sapiens, UniProt P29274); experiment: SAFETYscan47 Calcium Flux; format: cell-based; settings: 3 µM
T3 construct: purchased DiscoverX (Eurofins) SAFETYscan47
Description: To further profile any off-target activity, we counter-screened SHR168442 in SAFETYscan47 panel, compiled by DiscoverX based on the recommendation by major pharmaceutical companies. SHR168442 was screened at 3 µM in duplicates.

T3 sequence (P29274 whole entry): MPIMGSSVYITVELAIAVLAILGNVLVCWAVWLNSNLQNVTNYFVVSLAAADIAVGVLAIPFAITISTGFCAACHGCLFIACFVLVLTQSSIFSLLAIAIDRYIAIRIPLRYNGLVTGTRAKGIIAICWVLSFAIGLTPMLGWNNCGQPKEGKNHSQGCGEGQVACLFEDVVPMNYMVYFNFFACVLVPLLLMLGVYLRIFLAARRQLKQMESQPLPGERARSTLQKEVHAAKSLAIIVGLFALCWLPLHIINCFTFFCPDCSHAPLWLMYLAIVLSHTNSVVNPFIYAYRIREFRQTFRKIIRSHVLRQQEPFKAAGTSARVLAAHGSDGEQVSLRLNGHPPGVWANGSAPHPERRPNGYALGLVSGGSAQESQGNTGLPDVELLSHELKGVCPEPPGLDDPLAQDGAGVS

CCS(=O)(=O)c1ccc([C@H](CCO)c2nc3c(Cl)c(N4CCC(F)(F)CC4)c(Cl)cc3[nH]2)cc1 [SHR168442, (S)-3-(4,6-dichloro-5-(4,4-difluoropiperidin-1-yl)-1H-benzo[d]imidazol-2-yl)-3-(4-(ethylsulfonyl)phenyl)propan-1-ol]
IC50 [1]: 54 ± 12 nM
effect on RORα reporter activity (RORα): little effect
EC50 [2]: 20 ± 6 nM
IC50 [2]: 20 nM
cumulative scores (scaling, erythema, thickness) ([3]; 2%, 4% and 8% in Vaseline topical): clear dose-dependent reduction
scores of erythema ([3]; 4% and 8% topical, day 6, versus vehicle control): significantly reduced
score of scaling ([3]; 8% in Vaseline topical, days 4 to 6, scale 0 to 4): < 1.0
exposures in diseased skin and plasma ([3]; 3 h after topical application, all treatments): high in skin and low in plasma
body weight ([3]; all treatment groups): no significant body weight loss
IC50 (RORγ LBD): 35 ± 9 nM
% Response Average (ADORA2A; Agonist): 7.3%
% Response Replicate 1 (ADORA2A; Agonist): 0.0%
% Response Replicate 2 (ADORA2A; Agonist): 14.7%
% Response Average (ADORA2A; Antagonist): 15.1%
% Response Replicate 1 (ADORA2A; Antagonist): 5.4%
% Response Replicate 2 (ADORA2A; Antagonist): 24.9%
